{
  "source": "patent US20250249056A1",
  "about": "“CANCER THERAPIES COMPRISING A NUCLEAR EXPORT INHIBITOR AND AN ONCOLYTIC VIRUS” (priority 2022, published 2025)",
  "system": "Colo205 cells",
  "format": "cell-based, human",
  "conditions": "selinexor-treated nucleus vs MYXV + selinexor-treated nucleus",
  "data": [
    {"compound": "O=C(/C=C\\n1cnc(-c2cc(C(F)(F)F)cc(C(F)(F)F)c2)n1)NNc1cnccn1", "note": "[selinexor]", "values": [
      {"measurement": "Differential protein expression B2CWG0 m053R", "value": 0.01},
      {"measurement": "Differential protein expression B2CWG4 m057L", "value": 0.01},
      {"measurement": "Differential protein expression B2CWG5 m058R", "value": 0.176},
      {"measurement": "Differential protein expression B2CWG7 m060R", "value": 0.01},
      {"measurement": "Differential protein expression B2CWG8 m061R", "value": 0.01},
      {"measurement": "Differential protein expression B2CWH0", "value": 0.069},
      {"measurement": "Differential protein expression B2CWH1 m064R", "value": 0.211},
      {"measurement": "Differential protein expression B2CWH3 m066R", "value": 0.01},
      {"measurement": "Differential protein expression B2CWH6 m069L", "value": 0.01},
      {"measurement": "Differential protein expression B2CWH8", "value": 0.232},
      {"measurement": "Differential protein expression B2CWI0", "value": 0.021},
      {"measurement": "Differential protein expression B2CWI3 m076R", "value": 0.096},
      {"measurement": "Differential protein expression B2CWI4 m077L", "value": 0.01},
      {"measurement": "Differential protein expression B2CWI6 m079R", "value": 0.131},
      {"measurement": "Differential protein expression B2CWI7 m080R", "value": 0.036},
      {"measurement": "Differential protein expression B2CWJ3", "value": 0.01},
      {"measurement": "Differential protein expression B2CWJ5", "value": 0.01},
      {"measurement": "Differential protein expression B2CWJ9 m092L", "value": 0.16},
      {"measurement": "Differential protein expression B2CWK2 m095L", "value": 0.029},
      {"measurement": "Differential protein expression B2CWL4", "value": 0.01},
      {"measurement": "Differential protein expression B2CWL5 m108R", "value": 0.088},
      {"measurement": "Differential protein expression B2CWL8 m111R", "value": 0.101},
      {"measurement": "Differential protein expression B2CWM1", "value": 0.083},
      {"measurement": "Differential protein expression B2CWM2 m115L", "value": 0.077},
      {"measurement": "Differential protein expression B2CWP6 m139R", "value": 0.04},
      {"measurement": "Differential protein expression B2CWP9 m142R", "value": 0.01},
      {"measurement": "Differential protein expression B2CWQ5 m149R", "value": 0.01},
      {"measurement": "Differential protein expression B2CWQ7", "value": 0.229},
      {"measurement": "Differential protein expression B2CWR1 m156R", "value": 0.022},
      {"measurement": "Differential protein expression D2WM37 m012L", "value": 0.058},
      {"measurement": "Differential protein expression D2WMA0 m030L", "value": 0.057},
      {"measurement": "Differential protein expression D2WN05 m078R", "value": 0.021},
      {"measurement": "Differential protein expression D2WN26 m090L", "value": 0.097},
      {"measurement": "Differential protein expression D2WN93 m151R", "value": 0.255},
      {"measurement": "Differential protein expression D3W0C4 m130R", "value": 0.01},
      {"measurement": "Differential protein expression E2CZH7 m088L", "value": 0.01},
      {"measurement": "Differential protein expression E2CZJ6 m107L", "value": 0.01},
      {"measurement": "Differential protein expression E2CZJ9 m110L", "value": 0.01},
      {"measurement": "Differential protein expression E2CZK3 m114R", "value": 0.083},
      {"measurement": "Differential protein expression E2CZL2 m123R", "value": 0.277},
      {"measurement": "Differential protein expression E2CZL6 m127L", "value": 0.025},
      {"measurement": "Differential protein expression E2CZM0 m131R", "value": 0.01},
      {"measurement": "Differential protein expression E2CZM2 m133R", "value": 0.048},
      {"measurement": "Differential protein expression E2CZP2 m001R", "value": 0.037},
      {"measurement": "Differential protein expression E2CZQ3 m009L", "value": 0.132},
      {"measurement": "Differential protein expression E2CZQ9 m014L", "value": 0.092},
      {"measurement": "Differential protein expression E2CZR0 m015L", "value": 0.04},
      {"measurement": "Differential protein expression E2CZR6 m021L", "value": 0.133},
      {"measurement": "Differential protein expression E2CZV0 m055R", "value": 0.052},
      {"measurement": "Differential protein expression E2CZV1 m056R", "value": 0.01},
      {"measurement": "Differential protein expression E2CZV4 m059R", "value": 0.01},
      {"measurement": "Differential protein expression E2CZW3 m068R", "value": 0.052},
      {"measurement": "Differential protein expression E2CZW7 m072L", "value": 0.211},
      {"measurement": "Differential protein expression E2CZY1 m086L", "value": 0.01},
      {"measurement": "Differential protein expression K4JKC2 m073R", "value": 0.021},
      {"measurement": "Differential protein expression O00584 RNASET2", "value": 0.01},
      {"measurement": "Differential protein expression O10625 M-T1", "value": 0.037},
      {"measurement": "Differential protein expression O55698 M-T4", "value": 0.122},
      {"measurement": "Differential protein expression O76013 KRT36", "value": 0.01},
      {"measurement": "Differential protein expression O76015 KRT38", "value": 0.01},
      {"measurement": "Differential protein expression P01100 FOS", "value": 0.211},
      {"measurement": "Differential protein expression P05090 APOD", "value": 0.01},
      {"measurement": "Differential protein expression P07942 LAMB1", "value": 0.128},
      {"measurement": "Differential protein expression P10909 CLU", "value": 0.01},
      {"measurement": "Differential protein expression P14209 CD99", "value": 0.01},
      {"measurement": "Differential protein expression P17066 HSPA6", "value": 0.01},
      {"measurement": "Differential protein expression P17516 AKR1C4", "value": 0.01},
      {"measurement": "Differential protein expression P50583 NUDT2", "value": 0.01},
      {"measurement": "Differential protein expression P68544 PAPS", "value": 0.044},
      {"measurement": "Differential protein expression P68550", "value": 0.168},
      {"measurement": "Differential protein expression Q5BJH7 YIF1B", "value": 0.161},
      {"measurement": "Differential protein expression Q5VVJ2 MYSM1", "value": 0.01},
      {"measurement": "Differential protein expression Q6SJ93 FAM111B", "value": 0.253},
      {"measurement": "Differential protein expression Q8IY95 TMEM192", "value": 0.01},
      {"measurement": "Differential protein expression Q8TB72 PUM2", "value": 0.01},
      {"measurement": "Differential protein expression Q8TDQ7 GNPDA2", "value": 0.01},
      {"measurement": "Differential protein expression Q9P000 COMMD9", "value": 0.213},
      {"measurement": "Differential protein expression Q9PX24 m007L", "value": 0.087},
      {"measurement": "Differential protein expression Q9PX36 m006L", "value": 0.035},
      {"measurement": "Differential protein expression Q9PXA3 m004L", "value": 0.122},
      {"measurement": "Differential protein expression Q9Q8F0 m154L", "value": 0.125},
      {"measurement": "Differential protein expression Q9Q8F9 m144R", "value": 0.179},
      {"measurement": "Differential protein expression Q9Q8G2 m140R", "value": 0.165},
      {"measurement": "Differential protein expression Q9Q8G4 m137R", "value": 0.01},
      {"measurement": "Differential protein expression Q9Q8G6 m135R", "value": 0.021},
      {"measurement": "Differential protein expression Q9Q8H2 m129R", "value": 0.119},
      {"measurement": "Differential protein expression Q9Q8H9 m122R", "value": 0.022},
      {"measurement": "Differential protein expression Q9Q8I1 m120L", "value": 0.024},
      {"measurement": "Differential protein expression Q9Q8I4 m117L", "value": 0.027},
      {"measurement": "Differential protein expression Q9Q8I6 m114R", "value": 0.083},
      {"measurement": "Differential protein expression Q9Q8J1 m109L", "value": 0.032},
      {"measurement": "Differential protein expression Q9Q8J4 m106L", "value": 0.01},
      {"measurement": "Differential protein expression Q9Q8J5 m105L", "value": 0.01},
      {"measurement": "Differential protein expression Q9Q8J9 m101L", "value": 0.01},
      {"measurement": "Differential protein expression Q9Q8K1 m099L", "value": 0.03},
      {"measurement": "Differential protein expression Q9Q8K3 m097R", "value": 0.01},
      {"measurement": "Differential protein expression Q9Q8K6 m094R", "value": 0.01},
      {"measurement": "Differential protein expression Q9Q8K7 m093L", "value": 0.039},
      {"measurement": "Differential protein expression Q9Q8L1 m089L", "value": 0.01},
      {"measurement": "Differential protein expression Q9Q8L3 m087L", "value": 0.069},
      {"measurement": "Differential protein expression Q9Q8L8 m082R", "value": 0.037},
      {"measurement": "Differential protein expression Q9Q8L9 VETFS", "value": 0.087},
      {"measurement": "Differential protein expression Q9Q8M5 m075R", "value": 0.01},
      {"measurement": "Differential protein expression Q9Q8M6 m074R", "value": 0.047},
      {"measurement": "Differential protein expression Q9Q8M9 m071L", "value": 0.232},
      {"measurement": "Differential protein expression Q9Q8N0 m070R", "value": 0.01},
      {"measurement": "Differential protein expression Q9Q8N5", "value": 0.069},
      {"measurement": "Differential protein expression Q9Q8N8 m058R", "value": 0.176},
      {"measurement": "Differential protein expression Q9Q8P4 m052L", "value": 0.029},
      {"measurement": "Differential protein expression Q9Q8P7 m049R", "value": 0.051},
      {"measurement": "Differential protein expression Q9Q8Q1", "value": 0.059},
      {"measurement": "Differential protein expression Q9Q8Q3 m043L", "value": 0.067},
      {"measurement": "Differential protein expression Q9Q8Q6 m040L", "value": 0.011},
      {"measurement": "Differential protein expression Q9Q8Q8 m038L", "value": 0.023},
      {"measurement": "Differential protein expression Q9Q8R0 m036L", "value": 0.099},
      {"measurement": "Differential protein expression Q9Q8R4 m032R", "value": 0.01},
      {"measurement": "Differential protein expression Q9Q8R5 m031R", "value": 0.011},
      {"measurement": "Differential protein expression Q9Q8S0 m026R", "value": 0.039},
      {"measurement": "Differential protein expression Q9Q8S2 m020L", "value": 0.191},
      {"measurement": "Differential protein expression Q9Q8S8 m013L", "value": 0.172},
      {"measurement": "Differential protein expression Q9Q817 m113R", "value": 0.037},
      {"measurement": "Differential protein expression Q9UHX3 ADGRE2", "value": 0.01},
      {"measurement": "Differential protein expression Q9UJ68 MSRA", "value": 0.202},
      {"measurement": "Differential protein expression Q9YQ03 mt6", "value": 0.031},
      {"measurement": "Differential protein expression Q68DK2 ZFYVE26", "value": 0.092},
      {"measurement": "Differential protein expression Q77P93 m003.2L", "value": 0.049},
      {"measurement": "Differential protein expression Q77PB1 m003.1L", "value": 0.145},
      {"measurement": "Differential protein expression Q86WV6 STING1", "value": 0.01},
      {"measurement": "Differential protein expression Q96HD1 CRELD1", "value": 0.01},
      {"measurement": "Differential protein expression Q96LJ7 DHRS1", "value": 0.01},
      {"measurement": "Differential protein expression Q12913 PTPRJ", "value": 0.01},
      {"measurement": "Differential protein expression Q16204 CCDC6", "value": 0.249},
      {"measurement": "Differential protein expression Q58719 SFT2D3", "value": 0.01},
      {"measurement": "Differential protein expression Q83604 MF13", "value": 0.058},
      {"measurement": "Differential protein expression Q83730 m005R", "value": 0.01},
      {"measurement": "Differential protein expression Q85296", "value": 0.124},
      {"measurement": "Differential protein expression Q85297", "value": 0.01}
    ]}
  ]
}
